In PubChem BioAssay (NCI):
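96-well plates; 48 h exposure; 5 concentrations. Endpoints by linear interpolation between flanking doses. Not reached: highest tested concentration assigned. GI50 = concentration required for 50% inhibition of growth. TGI is the concentration that stops growth completely.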

Experiments:
Assay in all cases: NCI-60 cell line screen, 48 h
[1] = tested on: HCT-116 colon
[2] = tested on: MDA-MB-435
[3] = tested on: M14 melanoma
[4] = tested on: CCRF-CEM leukemia
[5] = tested on: MDA-MB-231 breast
[6] = tested on: BT-549 breast
[7] = tested on: SNB-19 CNS
[8] = tested on: HL-60(TB) leukemia
[9] = tested on: UO-31 renal
[10] = tested on: SF-295 CNS
[11] = tested on: U251 CNS
[12] = tested on: DU-145 prostate
[13] = tested on: RPMI-8226 leukemia
[14] = tested on: ACHN renal
[15] = tested on: OVCAR-5 ovarian
[16] = tested on: MALME-3M melanoma
[17] = tested on: T-47D breast
[18] = tested on: PC-3 prostate
[19] = tested on: SF-268 CNS
[20] = tested on: UACC-62 melanoma
[21] = tested on: MCF7 breast
[22] = tested on: UACC-257 melanoma
[23] = tested on: COLO 205 colon
[24] = tested on: NCI-H226 lung
[25] = tested on: NCI-H522 lung
[26] = tested on: RXF 393 renal
[27] = tested on: OVCAR-3 ovarian
[28] = tested on: SF-539 CNS
[29] = tested on: SK-OV-3 ovarian
[30] = tested on: TK-10 renal
[31] = tested on: LOX IMVI melanoma
[32] = tested on: 786-0 renal
[33] = tested on: NCI-H23 lung
[34] = tested on: HOP-62 NSCLC
[35] = tested on: OVCAR-4 ovarian
[36] = tested on: HT29 colon
[37] = tested on: SK-MEL-28 melanoma
[38] = tested on: SNB-75 CNS
[39] = tested on: HOP-92 NSCLC
[40] = tested on: SK-MEL-5 melanoma
[41] = tested on: KM12 colon
[42] = tested on: SK-MEL-2 melanoma
[43] = tested on: SW-620 colon
[44] = tested on: A498 renal
[45] = tested on: K-562 leukemia
[46] = tested on: A549 NSCLC
[47] = tested on: NCI/ADR-RES ovarian
[48] = tested on: HCT-15 colon
[49] = tested on: EKVX NSCLC
[50] = tested on: OVCAR-8 ovarian
[51] = tested on: HCC-2998 colon
[52] = tested on: SR leukemia
[53] = tested on: NCI-H460 lung
[54] = tested on: IGROV1 ovarian
[55] = tested on: SN12C renal
[56] = tested on: MOLT-4 leukemia

O=[N+]([O-])c1ccc2scc3c4ccccc4nc-3c2c1
GI50 [1]: 1330 nM
TGI [1]: 2940 nM
GI50 [2]: 1540 nM
TGI [2]: 3.94 µM
GI50 [3]: 1850 nM
TGI [3]: 3.58 µM
GI50 [4]: 611 nM
TGI [4]: 5.16 µM
GI50 [5]: 1650 nM
TGI [5]: 3.22 µM
GI50 [6]: 1730 nM
TGI [6]: 3.18 µM
GI50 [7]: 1960 nM
TGI [7]: 4.08 µM
GI50 [8]: 1170 nM
TGI [8]: 5.26 µM
GI50 [9]: 1160 nM
TGI [9]: 2510 nM
GI50 [10]: 1780 nM
TGI [10]: 3.87 µM
GI50 [11]: 600 nM
TGI [11]: 2000 nM
GI50 [12]: 1460 nM
TGI [12]: 2770 nM
GI50 [13]: 2120 nM
TGI [13]: 6.18 µM
GI50 [14]: 1500 nM
TGI [14]: 2950 nM
GI50 [15]: 1910 nM
TGI [15]: 3.75 µM
GI50 [16]: 1150 nM
TGI [16]: 2640 nM
GI50 [17]: 784 nM
TGI [17]: 3.32 µM
GI50 [18]: 1730 nM
TGI [18]: 3.5 µM
GI50 [19]: 1480 nM
TGI [19]: 2860 nM
GI50 [20]: 1720 nM
TGI [20]: 3.34 µM
GI50 [21]: 1290 nM
TGI [21]: 3.61 µM
GI50 [22]: 1320 nM
TGI [22]: 2720 nM
GI50 [23]: 1790 nM
TGI [23]: 3.52 µM
GI50 [24]: 2220 nM
TGI [24]: 6.08 µM
GI50 [25]: 342 nM
TGI [25]: 1540 nM
GI50 [26]: 1430 nM
TGI [26]: 2780 nM
GI50 [27]: 415 nM
TGI [27]: 1630 nM
GI50 [28]: 1800 nM
TGI [28]: 3.35 µM
GI50 [29]: 1810 nM
TGI [29]: 3.23 µM
GI50 [30]: 1080 nM
TGI [30]: 2320 nM
GI50 [31]: 1360 nM
TGI [31]: > 100 µM
GI50 [32]: 1840 nM
TGI [32]: 3.29 µM
GI50 [33]: 1900 nM
TGI [33]: 5.05 µM
GI50 [34]: 1780 nM
TGI [34]: 3.24 µM
GI50 [35]: 1670 nM
TGI [35]: 3.22 µM
GI50 [36]: 1380 nM
TGI [36]: 3.03 µM
GI50 [37]: 1720 nM
TGI [37]: 3.14 µM
GI50 [38]: 1370 nM
TGI [38]: 2660 nM
GI50 [39]: 1660 nM
TGI [39]: 3.28 µM
GI50 [40]: 1620 nM
TGI [40]: 3.03 µM
GI50 [41]: 1590 nM
TGI [41]: 2960 nM
GI50 [42]: 1660 nM
TGI [42]: 3.31 µM
GI50 [43]: 462 nM
TGI [43]: 1700 nM
GI50 [44]: 509 nM
TGI [44]: 2070 nM
GI50 [45]: 402 nM
TGI [45]: > 100 µM
GI50 [46]: 1740 nM
TGI [46]: 3.85 µM

c1cc2sc1CSCCSCCSC2
TGI [1]: > 100000 nM
TGI [2]: > 100 µM
TGI [47]: > 100 µM
TGI [3]: > 100 µM
TGI [4]: > 100 µM
TGI [5]: > 100 µM
TGI [6]: > 100 µM
TGI [7]: > 100 µM
TGI [8]: > 100 µM
TGI [9]: > 100000 nM
TGI [10]: > 100 µM
TGI [11]: > 100000 nM
TGI [12]: > 100000 nM
TGI [15]: > 100 µM
TGI [17]: > 100 µM
TGI [18]: > 100 µM
TGI [48]: > 100 µM
TGI [19]: > 100000 nM
TGI [20]: > 100 µM
TGI [49]: > 100 µM
TGI [21]: > 100 µM
TGI [22]: > 100000 nM
TGI [23]: > 100 µM
TGI [50]: > 100 µM
TGI [25]: > 100000 nM
TGI [27]: > 100000 nM
TGI [28]: > 100 µM
TGI [29]: > 100 µM
TGI [30]: > 100000 nM
TGI [31]: > 100 µM
TGI [32]: > 100 µM
TGI [33]: > 100 µM
TGI [34]: > 100 µM
TGI [35]: > 100 µM
TGI [36]: > 100 µM
TGI [37]: > 100 µM
TGI [38]: > 100000 nM
TGI [39]: > 100 µM
TGI [51]: > 100 µM
TGI [52]: > 100 µM
TGI [40]: > 100 µM
TGI [41]: > 100000 nM
TGI [53]: > 100 µM
TGI [43]: > 100000 nM
TGI [54]: > 100 µM
TGI [55]: > 100 µM
TGI [45]: > 100 µM
TGI [56]: > 100 µM
TGI [46]: > 100 µM
